Measured values reported in ChEMBL document CHEMBL1147443, “Regioselective oxidation of 2-amino-3-aroyl-4,5-dialkylthiophenes by DMSO” (Bioorg Med Chem Lett, 2004).

Assays:
[1] = Half life by its biological oxidation in presence of horse radish […]; format: ADME; settings: horseradish, horseradish peroxidase
[2] = Half life by its biological oxidation in presence of human liver microsomes; format: ADME, Microsome

half-life [1] | half-life [2] | SMILES
< 1 min | < 1 min | Nc1sc2c(c1C(=O)c1ccc(-c3ccccc3)cc1)CCCC2
1.33 min | < 1 min | Nc1sc2c(c1C(=O)c1ccc3ccccc3c1)CCCC2
< 1 min | < 1 min | Cc1sc(N)c(C(=O)c2cccc(C(F)(F)F)c2)c1C
